# According to publication PMC6576746, “Rational discovery of dual-indication multi-target PDE/Kinase inhibitor for precision anti-cancer therapy using structural systems pharmacology” (PLoS Computational Biology, 2019):
# Assays:
# Assay in all cases: cells
# Parameters in all cases: species or system panel of human cancer cell lines; Eurofins OncoPanel proliferation; nuclei count by high-content fluorescence imaging, 10-point dose response
# 639-V = settings: Homo sapiens, 639-V, 72 h, cell count, 3 days
# Procedure, shortened: (§1)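 Cells in RPMI 1640/10% FBS or special medium received compound the day after seeding, with a time-zero plate; 3-day incubation at 37°C, 5% CO2. Nuclei imaged by fluorescence microscopy; 10 half-log doses from 100 μM, 0.1% DMSO. EC50, IC50, GI50 and activity area (0–10) from curve fits.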
# 769-P = settings: Homo sapiens, 769-P, 72 h, cell count, 3 days
# Procedure, shortened: as §1
# CEM-C1 = settings: CEM/C1, 72 h, cell count, 3 days
# Procedure, shortened: as §1
# HuCCT1 = settings: Homo sapiens, HuCCT-1, 72 h, cell count, 3 days
# Procedure, shortened: as §1
# KLE = settings: Homo sapiens, KLE, 72 h, cell count, 3 days
# Procedure, shortened: as §1
# LS-174T = settings: Homo sapiens, LS174T, 72 h, cell count, 3 days
# Procedure, shortened: as §1
# MES-SA = settings: Homo sapiens, MES-SA, 72 h, cell count, 3 days
# Procedure, shortened: as §1
# NCI-H295R = settings: Homo sapiens, NCI-H295R, 72 h, cell count, 3 days
# Procedure, shortened: as §1
# REC-1 = settings: Homo sapiens, Rec1, 72 h, cell count, 3 days
# Procedure, shortened: as §1
# SCC-9 = settings: Homo sapiens, SCC-9, 72 h, cell count, 3 days
# Procedure, shortened: as §1
# SNU-C2B = settings: Homo sapiens, SNU-C2B, 72 h, cell count, 3 days
# Procedure, shortened: as §1
# SW480 = settings: Homo sapiens, SW480, 72 h, cell count, 3 days
# Procedure, shortened: as §1
# SW837 = settings: Homo sapiens, SW837, 72 h, cell count, 3 days
# Procedure, shortened: as §1
# T98G = settings: Homo sapiens, T98G, 72 h, cell count, 3 days
# Procedure, shortened: as §1
# [1] = 50% of maximum possible response
structure (smiles),measurement,setting,value
C[C@@H]1CC(=O)NN=C1c1ccc(NN=C(C#N)C#N)cc1 [levosimendan],IC50,639-V; [1],6.97 µM
same,GI50,639-V; corrected for time zero,6.51 µM
same,EC50,639-V; curve inflection point,5.59 µM
same,IC50,769-P; [1],40 µM
same,GI50,769-P; corrected for time zero,28.6 µM
same,EC50,769-P; curve inflection point,94.2 µM
same,IC50,CEM-C1; [1],22.5 µM
same,GI50,CEM-C1; corrected for time zero,18.8 µM
same,EC50,CEM-C1; curve inflection point,22.5 µM
same,IC50,HuCCT1; [1],27.5 µM
same,GI50,HuCCT1; corrected for time zero,24.8 µM
same,EC50,HuCCT1; curve inflection point,25.4 µM
same,IC50,KLE; [1],85.4 µM
same,GI50,KLE; corrected for time zero,20.8 µM
same,EC50,KLE; curve inflection point,29.6 µM
same,IC50,LS-174T; [1],> 100 µM
same,GI50,LS-174T; corrected for time zero,> 100 µM
same,EC50,LS-174T; curve inflection point,> 100 µM
same,IC50,MES-SA; [1],15.6 µM
same,GI50,MES-SA; corrected for time zero,13.7 µM
same,EC50,MES-SA; curve inflection point,15.6 µM
same,IC50,NCI-H295R; [1],91.6 µM
same,GI50,NCI-H295R; corrected for time zero,57.1 µM
same,EC50,NCI-H295R; curve inflection point,91.6 µM
same,IC50,REC-1; [1],25.2 µM
same,GI50,REC-1; corrected for time zero,9.04 µM
same,EC50,REC-1; curve inflection point,25.2 µM
same,IC50,SCC-9; [1],33.6 µM
same,GI50,SCC-9; corrected for time zero,26.3 µM
same,EC50,SCC-9; curve inflection point,33.6 µM
same,IC50,SNU-C2B; [1],55.2 µM
same,GI50,SNU-C2B; corrected for time zero,31.1 µM
same,EC50,SNU-C2B; curve inflection point,45.4 µM
same,IC50,SW480; [1],15.3 µM
same,GI50,SW480; corrected for time zero,10.8 µM
same,EC50,SW480; curve inflection point,13.1 µM
same,IC50,SW837; [1],37.5 µM
same,GI50,SW837; corrected for time zero,31.8 µM
same,EC50,SW837; curve inflection point,33.3 µM
same,IC50,T98G; [1],> 100 µM
same,GI50,T98G; corrected for time zero,> 100 µM
same,EC50,T98G; curve inflection point,> 100 µM
